Read-outs that look alike come from different tables or passages of the source.
Key:
[1] = system: human COLO 205 colon tumors; assay type: in vivo, female BALB/c nude mice; settings: 4 mg/kg, day 32
Description: (§1) Female or male BALB/c nu/nu (nude) mice are kept under sterile conditions (10 to 12 mice per Type III cage) with free access to food and water. Mice weigh between 20 and 25 grams at the time of tumor implantation. Tumors are established by subcutaneous injection of cells (minimum 2×10^6 cells in 100 μl PBS or medium) in carrier mice (4-8 mice per cell line). The resulting tumors are serially passaged for a minimum of three consecutive transplantations prior to start of treatment. Tumor fragments (approx. 25 mg) are implanted s.c. into the left flank of animals with a 13-gauge trocar needle while the mice are exposed to Forene (Abbott, Switzerland) anesthesia.
(§2) Tumor growth and body weights are monitored once or twice weekly. All treatments are administered intravenously (i.v.) and are initiated when a mean tumor volume of approximately 100 to 250 mm^3 is attained, depending upon the tumor type. Tumor volumes are determined using the formula […] (see Cancer Chemother. Pharmacol. 24:148-154, [1989]). Treatments with epothilone B vary the dose and the frequency of administration. Comparator agents are administered according to previously determined optimal treatment regimens. In addition to presenting changes in tumor volumes over the course of treatment, antitumor activity is expressed as T/C% (mean increase of tumor volumes of treated animals divided by the mean increase of tumor volumes of control animals multiplied by 100). Tumor regression (%) represents the smallest mean tumor volume compared to the mean tumor volume at the start of treatment, according to the formula Regression (%)=(1−Vend/Vstart)×100 (Vend=final mean tumor volume, Vstart=mean tumor volume at the start of treatment. Any animals in which the tumor has reached a size exceeding approximately 1.5 to 2.5 cm^3 are sacrificed. Details can be found below.
Tumor fragments of approximately 25 mg are implanted into the left flank of each female nude mouse (n=7 per group); a subcutaneous estrogen pellet is placed on the opposite flank. Treatments are started on day 14 after tumor transplantation. epothilone B is administered at 4 mg/kg, i.v., either once or once per week (days 14, 21, 28) or every second week (days 14 and 28). 5-fluorouracil is administered i.v. at 75 mg/kg on days 14, 21, 28. Data presented are from animals surviving to day 32, four days after the last treatments. Antitumor activity is expressed as T/C% (mean increase of tumor volumes of treated animals divided by the mean increase of tumor volumes of control animals multiplied by 100). Tumor regression (%) represents the final mean tumor volume compared to the mean tumor volume at the start of treatment. Changes (A) in tumor volumes represent the tumor volume on the last treatment day minus the tumor volume on the first treatment day.

[2] = system: human estrogen-dependent ZR-75-1 breast tumor; test: Antitumor effect against s.c. transplanted ZR-75-1 tumors; assay type: in vivo, female BALB/c nude mice
Description: as §1, §2
Tumor fragments of approximately 25 mg are implanted into the left flank of each female nude mouse (n=6 per group); a subcutaneous estrogen pellet is placed in the opposite flank. Treatments are started on day 19 after tumor transplantation. epothilone B is administered at 1, 2 or 4 mg/kg, i.v., either once per week (days 19, 26 and 33) or every second week (days 19 and 33). Data presented are from animals surviving to day 47, the last day of controls. Antitumor activity is expressed as T/C% (mean increase of tumor volumes of treated animals divided by the mean increase of tumor volumes of control animals multiplied by 100). Tumor regression (%) represents the final mean tumor volume compared to the mean tumor volume at the start of treatment. Changes (A) in tumor volume represent the tumor volume on the last treatment day minus the tumor volume on the first treatment day.

[3] = 1 mg/kg, i.v. every 7 days, day 47
[4] = 2 mg/kg, i.v. every 7 days, day 47
[5] = 4 mg/kg, i.v. every 7 days, day 47
[6] = 4 mg/kg, i.v. every 14 days, day 47

## C/C(=C\c1csc(C)n1)[C@@H]1C[C@@H]2O[C@]2(C)CCC[C@H](C)[C@H](O)[C@@H](C)C(=O)C(C)(C)[C@@H](O)CC(=O)O1 [epothilone B]
[1]; i.v. every 7 days
  T/C: Regres-
[1]; i.v. every 14 days
  T/C: Regres-
[1]; i.v. once
  T/C: Regres-
[2]; [3]
  Regression: none
  T/C (%): 86%
  Δ Body Weight: 0.3 g
[2]; [4]
  Regression: none
  T/C (%): 40%
  Δ Body Weight: -3.5 g
[2]; [5]
  T/C (%): 1%
  Δ Body Weight: -1.2 g
[2]; 4 mg/kg, i.v. every 7 days, transient
  Regression: −8%
[2]; [6]
  Regression: none
  T/C (%): 46%
  Δ Body Weight: -1.6 g

Source: patent US20040024033A1 (priority 1998, published 2004)
